# Key:
# PTP1B = PTP1B (Homo sapiens (Human), UniProt P18031); test: PTP1B-catalyzed pNPP hydrolysis; type: biochemical; settings: EYA3 vs PTP1B
# Description: The catalytic domain of human Eya2 (“hEYA2(ED)”) was similarly sub-cloned as a polyhistidine fusion construct in the vector pDEST-527. Fusion protein was purified by NiNTA chromatography and followed by size-exclusion chromatography over a Superdex-75 column. The relative purity of protein samples was determined using SDS-PAGE. PTP1B was purified as described previously (Rayapureddi, J. P. et al. Nature 426, 295-298 (2003), incorporated by reference in its entirety).
# (§1) Screening Methods. An inhibitory assay was conducted using the previously described p-nitrophenylphosphate assay (Rayapureddi, J. P. et al. Nature 426, 295-298 (2003)). Briefly, ED was incubated in a reaction mixture containing 20 mM MES pH 6, 2 mM MgCl2, 125 μM inhibitor, 3.4 mM para-nitrophenol phosphate (pNPP) and 0.01 μg/μL enzyme.
# PTP1B is a classical Cys-based tyrosine phosphatase.
# [1] = test system: retinal neovascularization; test: Mouse model of oxygen-induced retinopathy; type: in vivo; settings: 100 or 50 pmoles injected at P12, analyzed at P16
# From the text: The mouse model of oxygen-induced retinopathy mimics the retinopathy characteristic of proliferative retiopathy conditions such as retinopathy of prematurity and diabetic retinopathy. […] The resulting retinal hypoxia after day 12, when pups were brought back to 20% O2, induced excessive hypoxia-driven angiogenesis. A characteristic large avascular area at the center of the retina and excessive regrowth of superficial vessels (pre-retinal neovascular tufts) in the mid-peripheral region was observed. […] In contrast, inhibition of either Vegf or Vegfr2 in OIR experiments suppresses both neovascular tuft formation and revascularization.
# mouse aortic rings = test: Aortic ring sprouting angiogenesis assay; type: cell-based; settings: 5 μM, 10 days, VEGF-stimulated
# Description: Endothelial cell migration can also be studied ex vivo using the aortic ring assay in which sprouting angiogenesis is monitored by the formation of vascular sprouts outside the wall of mouse aortic rings incubated in collagen matrix and stimulated by VEGF (Gerhardt, H., et al. EXS, 3-15 (2005), hereby incorporated by reference in its entirety). Briefly, mice were obtained from the Cincinnati Children's veterinary service and handled according to the institutional animal care and use protocol. […] Mice were 4 to 6 weeks old female C57BL16, and aortic ring explants were cultured at 37° C. in a humidified incubator under a 5% CO2 atmosphere.
# Each inhibitor was serially diluted (between 0.25 mM and 7.5 mM) to stocks of 1000× the working concentrations in sterile 100% DMSO in order to achieve an equal final concentration of DMSO (0.1% v/v) in all culture conditions. For the experiments, the compounds were diluted in EBM containing 2.5% FBS, penicillin/streptomycin and 20 ng/ml VEGF165 (R&D Systems, Minneapolis, Minn.). Each compound was applied from the first day of culture over a 10-day period with medium change every two days. In all experiments, the vehicle (DMSO, 0.1%) was used as control. The sprouting density was derived from counting the number of branches per ring, and the extent of angiogenic sprouting was estimated by measuring the total surface area covered by the vessels as illustrated in FIG. 7.
# [2] = test system: developing zebrafish vasculature; test: Zebrafish model of angiogenesis; type: in vivo; settings: for number of intersegmental vessels / defects in the developing vasculature: varying doses; for defects in the developing vasculature: exposure from 5.25 hpf, analysis at 24 hpf
# Description: Embryos (FLK1-GFP trangenic) were maintained in fish water until the 50% epiboly stage (5.25 hpf) and were transferred into wells of 24-well plate containing the inhibitors in fish water. The analysis for vascular defects was performed after the 24 hpf stage, and embryos were imaged using a fluorescence microscope.
# Transgenic fish expressing EGFP in endothelial cells (Tg(flk1:EGFP)) were used to facilitate visualization of the developing vasculature. In control experiments embryos were treated with 0.1% DMSO (vehicle). At the time of analyses (24 hpf) developing vessels normally migrated from the lateral plate mesoderm to the midline and formed the vascular cord, subsequently forming the dorsal aorta and the posterior cardinal vein and followed by the formation of intersegmental vessels at designated branch points (FIG. 6b).
# MCF10A-EYA2 cells = test: Transwell migration of MCF10A-EYA2 cells; type: cell-based; settings: for migration of MCF10A(EYA2) cells: 7.5 μM
# From the text: The tyrosine phosphatase activity of Eya3 and Eya2 promotes single cell motility in breast cancer cells (Pandey, R. N. et al. Oncogene (2010) 29:3715-3722, incorporated by reference in its entirety). EYA2 is over-expressed in breast cancers and is associated with increased metastasis and a poorer outcome (Farabaugh, et al. Oncogene (2011) 259). […] Overexpression of EYA2, but not the tyrosine-phosphatase dead mutant, promoted cell motility (FIG. 2a). […] This effect was dose-dependent (FIG. 2d) and compound (1a) was able to reduce cell motility by over 50% at the lowest concentration (1 μM) tested.
# In order to determine whether EYA3 knock down would affect cell migration, a modified Boyden chamber assay was used to measure HUVEC migration. Briefly, human umbilical vein endothelial cells (HUVECs) were purchased from Lonza (Walkersville, Md.) and maintained in the endothelial cell growth medium (PromoCell, Heidelberg, Germany), under a 5% CO2 atmosphere. MCF10A cells from ATCC were stably transfected with either pcDNA 3.2N5-DEST (vector control), V5-EYA2 or V5-EYA2(D250N). Transwell migration experiments were performed as previously described (Pandey, R. N. et al. Oncogene 29, 3715-3722, (2010)).
# HUVECs [3] = test: HUVEC proliferation (MTT); type: cell-based, human; settings: 5 μM, 24 hours
# HUVECs [4] = test: HUVEC tubulogenesis on matrigel; type: cell-based, human; settings: 7.5 μM (highest concentration tested)
# Description: The EYA inhibitors were also tested in tubulogenesis assays. The tubulogenesis assays were performed in 15-well micro-slide (ibidi LLC, Verona Wis.), using growth factor-reduced matrigel (BD Bioscience, Billerica, Mass.). The matrix was prepared by loading 10 μl of matrigel in each micro-slide well and allowing it to solidify for 30 minutes at 37° C. HUVECs were trypsinized and resuspended at 100,000 cell/ml in EBM+2.5% FBS. 50 μl (5,000 cell) were loaded on top of the solidified matrigel and the preparation was incubated for 20 hours at 37° C. in a humidified incubator in a 5% CO2 atmosphere. Bright field images were taken using an inverted microscope at 2.5× magnification, which allowed imaging of the whole well in two pictures that were later merged in Photoshop. Tubular structures were traced and counted using NeuroJ (NIH, USA). In experiments with inhibitor, the inhibitor was added to the cell suspension before loading. Each sample was loaded in triplicate, and each treatment was repeated for reproducibility.
# EYA3-SIX2 interaction = EYA3-SIX2 interaction (Homo sapiens (Human), UniProt Q99504); test: His-SIX2 pull-down of EYA3 on Ni-NTA; type: binding; settings: 50 μM, 15 minutes
# From the text: Each point represents the mean and standard deviation of two independent readings. (C) Plots of Vmax and Km as a function of inhibitor concentration. […] The mixture was loaded on a Ni-NTA column. Beads were washed with 3 column volumes of load buffer (last washes, lanes 2 and 6). Proteins retained on the beads are shown in lanes 3 and 7. Lanes 4 and 8 are molecular weight markers.
# One function of the catalytic domain of the EYAs is to mediate its interaction with the SIX proteins. This complex then translocates to the nucleus where the SIX-EYA complex can activate transcription.
# [5] = molecular target: full-length human recombinant EYA3 (Homo sapiens (Human), UniProt Q99504); test: pNPP phosphatase assay, full-length EYA3; type: biochemical
# From the text: The catalytic domain of mouse Eya3 (“ED”, comprising residues 223-510 of Eya3) was purified as described by Rayapureddi, J. P. et al. (FEBS Lett 580, 3853-3859 (2006), incorporated by reference in its entirety). For full-length Eya3 (“hEYA3”), human Eya3 isoform 2 (representing the major species identified in human cell lines by mass spectrometry, expressed as residues 127-573 of NM_001990, isoform 1) was sub-cloned into pDEST565 to express a poly-histidine-Glutathione-S-transferase (His-GST) tagged fusion protein with a TVMV protease site. The protein was purified by glutathione-S-transferase affinity chromatography followed by TVMV cleavage, Ni-NTA chromatography, and finally size exclusion chromatography.
# as §1
# The compounds were then tested using full-length human recombinant, purified EYA3 and pNPP as a substrate. Compounds were dissolved in DMSO and diluted as needed. […] Reactions were incubated at 30° C. for 30 minutes and quenched with 100 mM EDTA pH 10. IC50 values were then calculated directly from regression curves using PRISM software. […]
# [6] = test system: A673 (Ewings sarcoma) cells; test: Mouse xenograft model of Ewings sarcoma; type: in vivo; settings: A673 xenograft in nude mice
# Description: The affect of EYA inhibitors on a mouse xenograft model of Ewings sarcoma was tested. 5×10^6 A673 (Ewings sarcoma) cells in 0.1 ml sterile matrigel were injected subcutaneously into the dorsal flank region of nude mice. Approximately 5 days after injection, the tumors were about 100-300 mm^3. […] The dose for intra-peritoneal injections was 25 mg/kg/day. The tumor size was monitored every other day. Animals were sacrificed after 2 weeks, or when tumor volume approached 10% of animal weight.
# retinal vasculature = test: Post-natal retinal angiogenesis in mice; type: in vivo, mouse; settings: 100 μM injected into eyes at P0.5 and P3, P5 retinas
# Description: Next, retinal blood vessel density and angiogenic extension were studied using induced deletion of Eya3 in mice by PDGFB-icreERT2 starting at the day of birth. Isolectin labeled retinal blood vessels at postnatal day 5 in control Eya3fl/fl (FIGS. 8b and 8d) and experimental Eya3fl/fl; PDGFB-icreERT2 (FIGS. […]) mice. FIGS. 8d and 8e are magnified images of the regions indicated in 8b and 8c, respectively.
# Next, treatment with an inhibitor of Eya3 was performed to test the effect on post-natal retinal angiogenesis. Briefly, 100 μM of compound 1a was injected into the eyes of post-natal mice, at P0.5 and P3. P5 retinas were then analyzed for effects on the retinal vasculature.
# PTP1B, sequence (P18031 whole entry, species assumed, the tested form may be a part): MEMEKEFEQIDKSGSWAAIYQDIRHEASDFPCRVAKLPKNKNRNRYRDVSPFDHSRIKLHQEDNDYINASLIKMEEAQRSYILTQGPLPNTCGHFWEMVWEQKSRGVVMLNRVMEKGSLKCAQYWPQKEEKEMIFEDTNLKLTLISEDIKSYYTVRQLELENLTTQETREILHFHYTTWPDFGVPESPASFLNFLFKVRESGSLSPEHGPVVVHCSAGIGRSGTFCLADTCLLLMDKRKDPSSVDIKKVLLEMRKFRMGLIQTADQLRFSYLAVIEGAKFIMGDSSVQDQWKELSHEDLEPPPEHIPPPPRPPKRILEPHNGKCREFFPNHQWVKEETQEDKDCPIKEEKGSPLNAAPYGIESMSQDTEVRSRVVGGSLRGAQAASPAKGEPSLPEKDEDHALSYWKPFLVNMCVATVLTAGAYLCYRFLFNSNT
# full-length human recombinant EYA3, sequence (Q99504 127-573): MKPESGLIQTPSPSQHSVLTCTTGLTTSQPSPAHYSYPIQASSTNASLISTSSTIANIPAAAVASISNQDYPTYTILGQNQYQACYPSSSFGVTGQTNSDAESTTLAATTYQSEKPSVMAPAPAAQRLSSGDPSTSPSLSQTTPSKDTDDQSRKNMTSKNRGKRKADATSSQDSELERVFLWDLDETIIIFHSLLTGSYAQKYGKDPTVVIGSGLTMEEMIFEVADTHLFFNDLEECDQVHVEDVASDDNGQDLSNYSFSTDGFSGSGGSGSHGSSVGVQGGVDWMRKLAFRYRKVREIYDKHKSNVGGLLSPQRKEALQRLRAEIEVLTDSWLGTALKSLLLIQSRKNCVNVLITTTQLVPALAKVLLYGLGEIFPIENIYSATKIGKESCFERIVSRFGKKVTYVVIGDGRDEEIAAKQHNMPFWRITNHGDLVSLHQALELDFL
# EYA3-SIX2 interaction, sequence (Q99504 whole entry, looked up, stated change not applied): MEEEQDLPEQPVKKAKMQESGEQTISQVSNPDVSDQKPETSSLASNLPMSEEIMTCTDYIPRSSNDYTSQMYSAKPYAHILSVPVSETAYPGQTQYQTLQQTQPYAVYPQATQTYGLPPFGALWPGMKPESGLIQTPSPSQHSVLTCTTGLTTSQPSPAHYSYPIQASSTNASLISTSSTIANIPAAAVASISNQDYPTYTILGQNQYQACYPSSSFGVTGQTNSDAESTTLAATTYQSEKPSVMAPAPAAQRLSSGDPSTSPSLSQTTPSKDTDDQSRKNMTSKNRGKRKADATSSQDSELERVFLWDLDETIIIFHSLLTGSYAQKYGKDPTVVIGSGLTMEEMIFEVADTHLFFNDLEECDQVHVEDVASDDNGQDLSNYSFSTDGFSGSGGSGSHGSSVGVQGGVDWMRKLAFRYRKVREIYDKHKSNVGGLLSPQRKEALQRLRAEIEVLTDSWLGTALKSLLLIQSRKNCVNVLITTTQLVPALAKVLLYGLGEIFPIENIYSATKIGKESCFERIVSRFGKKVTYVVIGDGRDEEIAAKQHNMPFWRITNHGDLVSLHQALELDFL
# EYA3-SIX2 interaction, sequence (Q9NPC8 whole entry partner, looked up): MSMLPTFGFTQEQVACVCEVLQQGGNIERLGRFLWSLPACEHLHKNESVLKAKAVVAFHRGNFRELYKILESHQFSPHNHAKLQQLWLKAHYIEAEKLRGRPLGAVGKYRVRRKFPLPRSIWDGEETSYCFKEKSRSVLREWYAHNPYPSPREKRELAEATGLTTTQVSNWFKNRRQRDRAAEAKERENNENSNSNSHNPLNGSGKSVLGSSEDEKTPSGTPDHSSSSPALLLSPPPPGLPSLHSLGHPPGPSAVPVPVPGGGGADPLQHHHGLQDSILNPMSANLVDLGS
greater activity towards EYA3 than PTP1B (PTP1B),EYA3-SIX2 interaction in presence of inhibitor (EYA3-SIX2 interaction),mode of inhibition of EYA3 (substrate titration) ([5]; increasing substrate concentration),SMILES,formation of neovascular tufts [1],aortic ring sprouting (mouse aortic rings),number of intersegmental vessels [2],defects in the developing vasculature [2],migration of MCF10A(EYA2) cells (MCF10A-EYA2 cells),HUVEC cell proliferation (HUVECs [3]),inhibition of tubulogenesis (HUVECs [4]),intersegmental vessels ([2]; 0.25 μM (lowest dose tested)),Vmax and Km as a function of inhibitor concentration [5],tumor growth [6],retinal vascular branch points (retinal vasculature),reduction of cell motility (MCF10A-EYA2 cells; 1 μM (lowest concentration tested))
4.7-6.5 fold,,,CCCCc1oc2ccccc2c1C(=O)c1ccc(O)cc1 [Compound 1b],Significant reduction in the formation of neovascular tufts,shorter sprouts and significantly lower microvascular density,"reduced the number of intersegmental vessels, but were less potent",Dose-dependent defects in the developing vasculature,significantly inhibited cell migration,no effect on cell proliferation,effective,,,,,
4.7-6.5 fold,unaffected,not a competitive inhibitor,"CCc1oc2ccccc2c1C(=O)c1cc(Br)c(O)c(Br)c1 [Compound 1, Benzbromarone, reference compound]",Significant reduction in the formation of neovascular tufts,shorter sprouts and significantly lower microvascular density,,Dose-dependent defects in the developing vasculature,significantly inhibited cell migration,no effect on cell proliferation,effective,significant reduction of intersegmental vessels,both values decrease with increased inhibitor concentration,able to reduce tumor growth,,
over 100 fold,,,CCc1oc2ccccc2c1C(=O)c1ccc(O)cc1 [Compound 1a],Significant reduction in the formation of neovascular tufts,shorter sprouts and significantly lower microvascular density,"reduced the number of intersegmental vessels, but were less potent",Dose-dependent defects in the developing vasculature,significantly inhibited cell migration,no effect on cell proliferation,,,,,quantifiable decrease in branch points,over 50%

# Source: US9962362B2, “Use of small molecule inhibitors targeting EYA tyrosine phosphatase” (CHILDREN'S HOSPITAL MEDICAL CENTER, priority 2012, dated 2018)
